In US20060024373A1, “Cross-linked hyaluronic acid-laminin gels and use thereof in cell culture and medical implants” (priority 2000, published 2006):

What was measured:
[1] = system: neuronal cells dissociated from brains of 14-16 days rat embryos; assay: Rat embryonic brain cells cultured in enriched HA-LN-gel with antioxidants / protective agents; format: cell-based; settings: for most effective dose: agent added to enriched HA-LN-gel before culturing the cells, AA tested at 1 mM, 330 μM, 100 μM, NAC at 0.1, 1, 10 μM; for neuronal sprouting: first 24-48 hours of culture in the enriched gel, versus untreated control cultures
Description: Neuronal cells were manually dissociated from brains of 14-16 days rat embryos. Cells were embedded in the HA-LN-gel, which was enriched as described herein above. NAC and AA were obtained from SIGMA (Cat. No. 616-91-1 and […]; Lot 108H00575 and 096H02811, respectively). Pifithrin-α, cyclic (Calbiochem, Cat No. 506134, lot:B41595) is a very stable analog of pifithrin-α, with reduced cytotoxicity. NAC, AA and Pifithrin-α cyclic were added to the HA-LN-gel (enriched with neural growth factors) prior to culturing of cells. Culture medium was changed twice a week. All the experiments contained control cultures (without treatment of NAC or AA or Pifithrin-α. 5-7 experiments were performed in 12 wells, in triplicates. Dissociated brain cells were attached to DE53 cylindrical, positively charged microcarriers (MCs), and suspended in brain medium for 4-17 days ([…] 1990 Methods in Neur 2:195-209). The floating cell-MC aggregates were transferred (using fine spatula, under a stereo microscope) into HA-LN-gel enriched with the indicated growth factors or Antioxidants. During one month of daily observations the following differences (which were more pronounced in the stationary MC-cultures) were observed: […]

[2] = system: Endothelial cells (HUVEC); assay: Attachment and growth of endothelial cells on or in substrates and milieus; format: cell-based
Description: In order to test the ability of HA-LN-gel to support the attachment and growth of endothelial cells, several experiments were conducted:
Endothelial cells (HE4 split #1), grown on gelatin, were collected by 0.25% trypsin-EDTA digestion. HUVEC were counted and 1.35×10^6 cells were divided into treatment groups. The cells were seeded in triplicates into 12-well plates at a concentration of 50,000 cells per well. The treatment groups were as follows: • 1. Cells seeded on the plastic • 2. Cells seeded on gelatin coating • 3. Cells seeded on HA (1 ml)+medium (0.5 ml) coating. Each well was coated with ˜0.2 ml • 4. Cells (150,000) seeded in HA (1 ml)+medium (0.5 ml). 0.5 ml per well. • 5. Cells seeded on gelatin and after attachment (24 hours) covered with HA+medium (as above, coated with 0.5 ml per well) • 6. Cells seeded on Laminin coating • 7. Cells seeded on HA-LN-gel coating (0.9 ml HA, 0.1 ml Laminin, 0.4 ml medium). Coating was with ˜0.2 ml per well • 8. Cells (150,000) seeded in HA-LN-gel (as in g) • 9. Cells seeded on gelatin and after attachment (24 hours) covered with HA-LN-gel (as in g above)
The morphology of the seeded cells was monitored microscopically every day.
Therefore the above experiment was repeated using 10% of the laminin concentration. Endothelial were seeded in 12 well plates in triplicates (50000 cell/well) as follows: • 1. Cells on gelatin coating as control. • 2. Cells on HA-LN-gel (10% of the usual concentration of laminin) coating. • 3. Cells in HA-LN-gel (10% of the usual concentration of laminin) • 4. Higher concentration of cells (100,000/well) in HA-LN-gel (10% of the usual concentration of laminin).

Compound	effectiveness of the tested concentrations ([1]; 1 mM, 330 μM or 100 μM applied to the cell cultures)	most effective dose [1] [µM]	neuronal sprouting [1]	effectiveness compared between concentrations ([1]; 100 and 200 nM versus 2 μM)	morphology and attachment of cells seeded on the coating ([2]; 50,000 cells per well, 12-well plates, usual laminin concentration, monitored microscopically every day)	toxicity to endothelial cells as substrate coating ([2]; cells seeded on the coating)	toxic effects on EC, overall finding of first experiment ([2]; laminin alone or as a component of the HA-LN-gel, at the concentration examined)
O=C1O[C@H]([C@@H](O)CO)C(O)=C1O [Ascorbic acid]	effective	330	stimulated intensive sprouting				
CC(=O)N[C@@H](CS)C(=O)O [N-acetyl-L-cysteine]		10	stimulated intensive sprouting				
Cc1ccc(-c2cn3c4c(sc3n2)CCCC4)cc1 [Pifithrin-α, cyclic]			stimulated intensive sprouting	more effective			
laminin: adhesive glycoprotein; Murine LN-1 obtained from Sigma					appeared round and did not attach well to the substrate	toxic	some toxic effects
